Experimental data reported in patent US20030068802A1, “Use of streptococcus pneumoniae acyl carrier protein synthase crystal structure in diagnostics, antimicrobial drug design, and biosensors” (priority 2000, published 2003).

Tests used:
[1] = target: T1, purified AcpS of S. pneumoniae (Streptococcus pneumoniae, UniProt P0A2W7); experiment: HPLC-based AcpS enzyme assay (conversion of apo-ACP to holo-ACP); type: biochemical; conditions: for Ki: 3.7 nM AcpS; for relative activity as substrate of AcpS: CoA = 100, 1.5 μM apo-ACP, 20 μM CoA or CoA derivative, 19 nM AcpS
T1 construct: made in house; host or cells: E. coli BL21 (pLysS)/pRBP-19 (pET-11a)
T1 sequence (P0A2W7 1-120): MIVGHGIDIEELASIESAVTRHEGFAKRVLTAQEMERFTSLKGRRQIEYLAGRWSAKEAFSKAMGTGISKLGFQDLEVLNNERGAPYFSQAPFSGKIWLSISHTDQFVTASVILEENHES
Protocol: (§1) Unless otherwise indicated, reaction mixtures contain 50 mM Tris-HCl, pH 7.0, 10 mM MgCl2, 2.5-50 μM CoA, 0.25-6.0 μM purified apo-ACP of S. pneumoniae, and 3.7 nM purified AcpS of S. pneumoniae, and are incubated at 37° C. for 9 min. Reactions are stopped by the addition of 50 mM EDTA. The formation of holo-ACP is determined by an HPLC or a trichloroacetic acid (TCA) precipitation method (see below). An HPLC-based assay is adapted from the method described previously (Lambalot and Walsh, 1997). This assay monitors the conversion of apo-ACP to holo-ACP. Reaction mixtures (100 μl each) are injected into an analytical HPLC column (Vydac protein C4 reverse-phase; P. J. Cobert Associates, Inc., St. Louis, Mo.) equilibrated with 45% acetonitrile in 0.1% trifluoroacetic acid. The column is eluted with an 8 ml linear gradient of 45-80% acetonitrile. The column elution profiles are monitored at 220 nm. Under these conditions, holo-ACP migrates faster than apo-ACP. The amount of holo-ACP formed is estimated by comparing the peak area of the holo-ACP formed with those of both apo- and holo-ACP.
(§2) To examine the substrate specificity of AcpS, a variety of CoA derivatives (acetyl-CoA, malonyl-CoA, acetoacetyl-CoA, desulfo-CoA, and dephospho-CoA) are tested. All reaction mixtures contain 1.5 μM apo-ACP, 20 μM CoA or CoA derivative, and 19 nM AcpS, and the formation of holo-ACP is determined by the HPLC method.
For the determination of Km and Vmax (kcat) of AcpS for apo-ACP, reaction mixtures (in quadruplicate) contain 20 μM CoA, 0.25 to 100 μM apo-ACP, and 3.7 nM. AcpS. The formation of holo-ACP is measured by the HPLC method or the TCA precipitation method. To determine Km for CoA, the reaction conditions are the same as those described above except that the concentration of apo-ACP is 2.0 μM, and the concentrations of CoA were 5 to 600 μM. […]
To evaluate the inhibition of AcpS activity by 3′,5′-ADP with respect to CoA, reaction mixtures contain 1-60 μM 3′,5′-ADP, 2.5-60 μM CoA, 1.0 μM apo-ACP, and 3.7 nM AcpS. To evaluate the inhibition of AcpS activity by 3′,5′-ADP with respect to apo-ACP, reaction mixtures contain 1-60 μM 3′,5′-ADP, 0.5-6.0 μM apo-ACP, 20 μM CoA, and 3.7 nM AcpS. The formation of holo-ACP is analyzed by the HPLC method.

[2] = target: T1, purified AcpS of S. pneumoniae; experiment: Substrate binding to AcpS by gel filtration column chromatography, mass spectrometry and filter binding; conditions: 27 μM AcpS, 10 mM MgCl2, 100 μM apo-ACP or 50 μM CoA, room temperature 30 min
Protocol: To determine whether AcpS binds directly to apo-ACP or CoA in the absence of the other substrate, a purified AcpS preparation (27 μM) is first mixed with 10 mM MgCl2, and then either 100 μM apo-ACP or 50 μM CoA. The mixture is incubated at room temperature for 30 min and subjected to gel filtration column chromatography (S-75 Superdex) under the conditions described above. The fractions containing the AcpS-apo-ACP complex and unbound apo-ACP are analyzed by SDS-PAGE (16% tricine gels), SYPRO Orange staining, and mass spectrometry.
The order of substrate binding to AcpS can be analyzed by determining the binding of CoA and apo-ACP to purified AcpS by gel filtration column chromatography, mass spectrometry, or filter binding assays. If CoA binds to AcpS first and forms an enzyme-substrate complex that is required for the next reaction with apo-ACP, then a stable enzyme-substrate complex should be detectable. […]
Whether apo-ACP binds to AcpS in the absence of CoA, a mixture of AcpS and apo-ACP (apo-ACP/AcpS=5:1) can be subjected to gel filtration column chromatography and analysis of the column fractions by SDS-PAGE. […] Consistent with the formation of the AcpS-apo-ACP complex, the presence of apo-ACP is also detected in the fractions containing purified AcpS (FIG. 2B). […]

[3] = substrate: CC(C)(COP(=O)(O)OP(=O)(O)OC[C@H]1O[C@@H](n2cnc3c(N)ncnc32)[C@H](O)[C@@H]1OP(=O)(O)O)[C@@H](O)C(=O)NCCC(=O)NCCS; experiment: HPLC-based AcpS enzyme assay (conversion of apo-ACP to holo-ACP); type: biochemical, Streptococcus pneumoniae; conditions: other: fixed apo-ACP 2 μM, various CoA, HPLC method; pH 7.0; 37.0 °C
Protocol: as §1, with “The amount of holo-ACP formed is estimated by comparing the peak area of the holo-ACP formed with those of both apo- and holo-ACP.” left out
as §2, with “method. […]” for “method.”

[4] = substrate: CC(C)(COP(=O)(O)OP(=O)(O)OC[C@H]1O[C@@H](n2cnc3c(N)ncnc32)[C@H](O)[C@@H]1OP(=O)(O)O)[C@@H](O)C(=O)NCCC(=O)NCCS; experiment: TCA precipitation AcpS assay ([3H]CoA incorporation into apo-ACP); type: biochemical, Streptococcus pneumoniae; conditions: other: TCA precipitation method
Protocol: AcpS activity is also assayed by using a TCA precipitation method (Lambalot and Walsh, 1995). This method measures the incorporation of the 3H-labeled 4′-phospho-pantotheine group from [^3H]CoA into apo-ACP. Reaction conditions are the same as those described for the HPLC assay, except that [^3H]COA (specific activity, 1.5 Ci/mmol, NEN Life Science Products, Boston, Mass.) is used alone or in combination with CoA. Reactions are stopped by the addition of 0.9 ml of cold 10% TCA followed by 37 μg of bovine serum albumin (BSA). Precipitated protein is collected by centrifugation (a microfuge at 14,000 rpm) for 5 min and washed twice with ice-cold 10% TCA. The protein collected is resuspended in 150 μl of 1M Tris base and 0.1% Triton X-100. The resulting suspension (100 μl) is mixed with 2.5 ml of Ready Protein+scintillation fluid (Beckman, Fullerton, Calif.), and counted using an LS 60001C scintillation counter (Beckman).
For the determination of Km and Vmax (kcat) of AcpS for apo-ACP, reaction mixtures (in quadruplicate) contain 20 μM CoA, 0.25 to 100 μM apo-ACP, and 3.7 nM. AcpS. The formation of holo-ACP is measured by the HPLC method or the TCA precipitation method. To determine Km for CoA, the reaction conditions are the same as those described above except that the concentration of apo-ACP is 2.0 μM, and the concentrations of CoA were 5 to 600 μM.

[5] = target: Streptococcus pneumoniae apo-acyl carrier protein (apo-ACP)

Nc1ncnc2c1ncn2[C@@H]1O[C@H](COP(=O)(O)O)[C@@H](OP(=O)(O)O)[C@H]1O [3′,5′-ADP, 3′,5′-adenosine diphosphate]
Ki ([1]; inhibition of AcpS activity with respect to CoA, various CoA concentrations, fixed apo-ACP 1.0 μM, Dixon plot FIG. 7C): 6 µM | Ki ([1]; inhibition of AcpS activity with respect to apo-ACP, various apo-ACP concentrations, fixed CoA 20 μM, Dixon plot FIG. 7D): 2.5 µM | pattern of inhibition with respect to CoA (double reciprocal plots) ([1]; various CoA, fixed apo-ACP): simple competitive pattern | pattern of inhibition with respect to apo-ACP (double reciprocal plots) ([1]; various apo-ACP, fixed CoA): linear-mixed pattern

CC(C)(COP(=O)(O)OP(=O)(O)OC[C@H]1O[C@@H](n2cnc3c(N)ncnc32)[C@H](O)[C@@H]1OP(=O)(O)O)[C@@H](O)C(=O)NCCC(=O)NCCS [CoA, Coenzyme A]
binding to AcpS in the absence of the other substrate [2]: does not appear to bind | relative activity as substrate of AcpS [1]: 100

CC(=O)CC(=O)SCCNC(=O)CCNC(=O)[C@H](O)C(C)(C)COP(=O)(O)OP(=O)(O)OC[C@H]1O[C@@H](n2cnc3c(N)ncnc32)[C@H](O)[C@@H]1OP(=O)(O)O [acetoacetyl-CoA]
relative activity as substrate of AcpS [1]: 65

CC(=O)SCCNC(=O)CCNC(=O)[C@H](O)C(C)(C)COP(=O)(O)OP(=O)(O)OC[C@H]1O[C@@H](n2cnc3c(N)ncnc32)[C@H](O)[C@@H]1OP(=O)(O)O [acetyl-CoA]
relative activity as substrate of AcpS [1]: 91

CC(C)(COP(=O)(O)OP(=O)(O)OC[C@H]1O[C@@H](n2cnc3c(N)ncnc32)[C@H](O)[C@@H]1O)[C@@H](O)C(=O)NCCC(=O)NCCS [dephospho-CoA]
relative activity as substrate of AcpS [1]: 0

CCNC(=O)CCNC(=O)[C@H](O)C(C)(C)COP(=O)(O)OP(=O)(O)OC[C@H]1O[C@@H](n2cnc3c(N)ncnc32)[C@H](O)[C@@H]1OP(=O)(O)O [desulfo-CoA]
relative activity as substrate of AcpS [1]: 76

CC(C)(COP(=O)(O)OP(=O)(O)OC[C@H]1O[C@@H](n2cnc3c(N)ncnc32)[C@H](O)[C@@H]1OP(=O)(O)O)[C@@H](O)C(=O)NCCC(=O)NCCSC(=O)CC(=O)O [malonyl-CoA]
relative activity as substrate of AcpS [1]: 12

B1: purified AcpS of S. pneumoniae (Streptococcus pneumoniae R6) (protein)
chain: T1 sequence (P0A2W7 1-120)
notes: made in house; host or cells: E. coli BL21 (pLysS)/pRBP-19 (pET-11a)
Km [3]: 11.5 ± 0.9 µM | Km [4]: 7.1 ± 0.4 µM | Km (for apo-ACP), HPLC assay of holo-ACP formation, high apo-ACP concentrations [5]: 109 ± 6.8 µM | Km (for apo-ACP), HPLC assay of holo-ACP formation, low apo-ACP concentrations [5]: 0.5 µM | apparent Km for apo-ACP, TCA precipitation assay with [3H]CoA [5]: 1.3 µM | fold decrease of affinity (Km) at high versus low apo-ACP concentrations [5]: approximately 200-fold
